Reference: PubChem BioAssay (NCI)
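GI50 is the concentration that inhibits growth by half. Definition used: TGI = concentration required for complete inhibition of growth.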

How the values were obtained:
Test in all cases: NCI-60 cell line screen, 384-well format
A498 renal = tested on: A498 renal
M14 melanoma = tested on: M14 melanoma
MCF7 breast = tested on: MCF7 breast
SF-295 CNS = tested on: SF-295 CNS
LOX IMVI melanoma = tested on: LOX IMVI melanoma
MDA-MB-231 breast = tested on: MDA-MB-231 breast
COLO 205 colon = tested on: COLO 205 colon
OVCAR-5 ovarian = tested on: OVCAR-5 ovarian
MOLT-4 leukemia = tested on: MOLT-4 leukemia
IGROV1 ovarian = tested on: IGROV1 ovarian
UACC-62 melanoma = tested on: UACC-62 melanoma
OVCAR-8 ovarian = tested on: OVCAR-8 ovarian
HT29 colon = tested on: HT29 colon
BT-549 breast = tested on: BT-549 breast
NCI-H522 lung = tested on: NCI-H522 lung
UACC-257 melanoma = tested on: UACC-257 melanoma
HS 578T breast = tested on: HS 578T breast
RXF 393 renal = tested on: RXF 393 renal
A549 NSCLC = tested on: A549 NSCLC
NCI-H322M lung = tested on: NCI-H322M lung
MDA-MB-468 breast = tested on: MDA-MB-468 breast
NCI-H23 lung = tested on: NCI-H23 lung
SK-OV-3 ovarian = tested on: SK-OV-3 ovarian
HCT-15 colon = tested on: HCT-15 colon
HL-60(TB) leukemia = tested on: HL-60(TB) leukemia
SN12C renal = tested on: SN12C renal
K-562 leukemia = tested on: K-562 leukemia
SK-MEL-5 melanoma = tested on: SK-MEL-5 melanoma
ACHN renal = tested on: ACHN renal
RPMI-8226 leukemia = tested on: RPMI-8226 leukemia
DU-145 prostate = tested on: DU-145 prostate
CCRF-CEM leukemia = tested on: CCRF-CEM leukemia
CAKI-1 renal = tested on: CAKI-1 renal
NCI/ADR-RES ovarian = tested on: NCI/ADR-RES ovarian
SNB-75 CNS = tested on: SNB-75 CNS
SF-539 CNS = tested on: SF-539 CNS
KM12 colon = tested on: KM12 colon
SR leukemia = tested on: SR leukemia
MDA-MB-435 melanoma = tested on: MDA-MB-435 melanoma
MALME-3M melanoma = tested on: MALME-3M melanoma
NCI-H226 lung = tested on: NCI-H226 lung
UO-31 renal = tested on: UO-31 renal
OVCAR-4 ovarian = tested on: OVCAR-4 ovarian
EKVX NSCLC = tested on: EKVX NSCLC
TK-10 renal = tested on: TK-10 renal
U251 glioblastoma = tested on: U251 glioblastoma
786-0 renal = tested on: 786-0 renal

CCN(CC)CCNC(=O)c1c(C)[nH]c(/C=C2\C(=O)Nc3ccc(F)cc32)c1C
GI50 (A498 renal): 1.54 µM
TGI (A498 renal): 3.14 µM
GI50 (M14 melanoma): 0.911 µM
TGI (M14 melanoma): 2.15 µM
GI50 (MCF7 breast): 1.36 µM
TGI (MCF7 breast): 3.8 µM
GI50 (SF-295 CNS): 5.25 µM
TGI (SF-295 CNS): 9.62 µM
GI50 (LOX IMVI melanoma): 1.39 µM
TGI (LOX IMVI melanoma): 2.71 µM
GI50 (MDA-MB-231 breast): 2.22 µM
TGI (MDA-MB-231 breast): 5.5 µM
GI50 (COLO 205 colon): 3.18 µM
TGI (COLO 205 colon): 7.89 µM
GI50 (OVCAR-5 ovarian): 2.67 µM
TGI (OVCAR-5 ovarian): 11.2 µM
GI50 (MOLT-4 leukemia): 1.03 µM
TGI (MOLT-4 leukemia): 2.28 µM
GI50 (IGROV1 ovarian): 1.14 µM
TGI (IGROV1 ovarian): 5.97 µM
GI50 (UACC-62 melanoma): 1.8 µM
TGI (UACC-62 melanoma): 4.46 µM
GI50 (OVCAR-8 ovarian): 2.35 µM
TGI (OVCAR-8 ovarian): 6.18 µM
GI50 (HT29 colon): 1.48 µM
TGI (HT29 colon): 2.85 µM
GI50 (BT-549 breast): 1.58 µM
TGI (BT-549 breast): 2.98 µM
GI50 (NCI-H522 lung): 2.22 µM
TGI (NCI-H522 lung): 6.49 µM
GI50 (UACC-257 melanoma): 1.71 µM
TGI (UACC-257 melanoma): 3.1 µM
GI50 (HS 578T breast): 1.86 µM
TGI (HS 578T breast): 3.73 µM
GI50 (RXF 393 renal): 1.88 µM
TGI (RXF 393 renal): 3.53 µM
GI50 (A549 NSCLC): 2.58 µM
TGI (A549 NSCLC): 6.97 µM
GI50 (NCI-H322M lung): 2.41 µM
TGI (NCI-H322M lung): 8.96 µM
GI50 (MDA-MB-468 breast): 2.94 µM
TGI (MDA-MB-468 breast): 5.41 µM
GI50 (NCI-H23 lung): 1.91 µM
TGI (NCI-H23 lung): 4.64 µM
GI50 (SK-OV-3 ovarian): 1.04 µM
TGI (SK-OV-3 ovarian): 5.7 µM
GI50 (HCT-15 colon): 1.19 µM
TGI (HCT-15 colon): 3.6 µM
GI50 (HL-60(TB) leukemia): 0.892 µM
TGI (HL-60(TB) leukemia): 2.13 µM
GI50 (SN12C renal): 0.931 µM
TGI (SN12C renal): 10.4 µM
GI50 (K-562 leukemia): 1.35 µM
TGI (K-562 leukemia): 2.66 µM
GI50 (SK-MEL-5 melanoma): 1.24 µM
TGI (SK-MEL-5 melanoma): 2.5 µM
GI50 (ACHN renal): 1.3 µM
TGI (ACHN renal): 3.06 µM
GI50 (RPMI-8226 leukemia): 1.38 µM
TGI (RPMI-8226 leukemia): 2.78 µM
GI50 (DU-145 prostate): 2.54 µM
TGI (DU-145 prostate): 11.9 µM
GI50 (CCRF-CEM leukemia): 1.58 µM
TGI (CCRF-CEM leukemia): 2.94 µM
GI50 (CAKI-1 renal): 0.748 µM
TGI (CAKI-1 renal): 2.06 µM
GI50 (NCI/ADR-RES ovarian): 2.56 µM
TGI (NCI/ADR-RES ovarian): 6.16 µM
GI50 (SNB-75 CNS): 3.67 µM
TGI (SNB-75 CNS): 8.24 µM
GI50 (SF-539 CNS): 1.28 µM
TGI (SF-539 CNS): 2.61 µM
GI50 (KM12 colon): 0.0426 µM
TGI (KM12 colon): 4.7 µM
GI50 (SR leukemia): 1.81 µM
TGI (SR leukemia): 3.24 µM
GI50 (MDA-MB-435 melanoma): 2.45 µM
TGI (MDA-MB-435 melanoma): 6.53 µM
GI50 (MALME-3M melanoma): 1.17 µM
TGI (MALME-3M melanoma): 2.41 µM
GI50 (NCI-H226 lung): 1.61 µM
TGI (NCI-H226 lung): 4.48 µM
GI50 (UO-31 renal): 2.17 µM
TGI (UO-31 renal): 6.36 µM
GI50 (OVCAR-4 ovarian): 3.93 µM
TGI (OVCAR-4 ovarian): 8.44 µM
GI50 (EKVX NSCLC): 3.12 µM
TGI (EKVX NSCLC): 9.47 µM
GI50 (TK-10 renal): 3.11 µM
TGI (TK-10 renal): 8.02 µM
GI50 (U251 glioblastoma): 2.09 µM
TGI (U251 glioblastoma): 5.09 µM
GI50 ([…]-0 renal): 1.62 µM
TGI (786-0 renal): 3.11 µM
